Test results: PubChem BioAssay AID588827 (Broad Institute, 2011)
Results filed as inconclusive are left out.

tested on: NIH3T3 R4 HSF-1 GFP reporter, heat shock, 48 h; assay: decrease of heat-induced HSF-1 GFP reporter, dose response, NIH3T3 R4 cells, GFP/RFP, cherry-pick, set 4 (AID 588827)

Row | Structure (SMILES) | AC50
1 | CC(C)(C)c1ccc2c(c1)OC(C(=O)N/N=C\c1ccc[nH]1)CO2 (stereo not given) | 0.515 µM
2 | CCOC(=O)Cc1nnc2c(Nc3ccccc3F)nc3nonc3n12 | 7.38 µM
3 | CCc1ccc(C2=NNC(=Nc3cccc(S(=O)(=O)N(C)C)c3)SC2)cc1 | 15.7 µM
4 | C=C(C)C(=O)O[C@H]1C/C(C)=C\C(=O)/C=C(\C)[C@H](O)[C@@H]2OC(=O)C(=C)[C@@H]21 | 12.9 µM
5 | Cc1ccc(NC2=C/C(=N\S(=O)(=O)c3cccs3)c3ccccc3C2=O)c(C)c1 | 1.42 µM
6 | O=S(=O)(c1ccc2c(c1)C(=NO)c1cc(S(=O)(=O)N3CCCCC3)ccc1-2)N1CCCCC1 | 2.49 µM
7 | C(=N\NC1=Nc2cccc3cccc1c23)/c1ccccn1 | 19.2 µM
8 | COc1ccc(C[C@H]2NC[C@H](O)[C@H]2OC(C)=O)cc1 | 0.361 µM
9 | CC12CCC(C/C1=N\N=C1\NC(=O)/C(=C\c3ccc(Cl)cc3)S1)C2(C)C (stereo not given) | 2.11 µM
10 | O=C(CCl)Nc1cn(-c2ccccc2)nc1-c1ccc(F)cc1 | 5.2 µM
11 | Cn1c(=O)c([N+](=O)[O-])c(Cl)c2ccccc21 | 14.2 µM
12 | COc1ccccc1-c1cc(C(F)(F)F)nc(S(=O)(=O)CCCC(=O)NCc2ccc(F)cc2)n1 | 5.26 µM
13 | Cc1cc([N+](=O)[O-])c2ccccc2[n+]1[O-] | 11 µM
14 | O=C(CCl)N(c1ccccc1)C1CCCCC1 | 5.18 µM
15 | CCOC(=O)c1c(C)[nH]c2c1-c1ccccc1C(=O)C2=O | 1.23 µM
